Data taken from patent US20220289686A1, “COMPOSITIONS OF NRF2 INHIBITING AGENTS AND METHODS OF USE THEREOF” (Washington University, priority 2021, published 2022).
Read-outs that look alike come from different tables or passages of the source.

Tests used:
[1] = tested on: NRF2 activity in H1299-NQO1-YFP cells; assay: NRF2 activity reporter IC50 in H1299-NQO1-YFP cells vs NRF2 pathway activators (IncuCyte, YFP/mCherry); format: cell-based
Procedure: Readings were taken every 2 hours for at least 24 hours. […] Readings were also taken every 2 hours for 96 hours in and IncuCyte S3.
(§1) YFP total intensity (correlating to NRF2 activity) was normalized to NLS-mCherry (cell number) total intensity to give a ratio (YFP/mCherry). Ratios at one time point at least 24 hours post compounds were added were used. These numbers were then plotted in Graphpad Prism to calculate IC50s. […] From three biological replicates, percent confluence was used for proliferation assays to calculate IC50s, calculations performed using Graphpad Prism.

[2] = tested on: mutant KEAP1 activation of NRF2 pathway in H1299-NQO1-YFP cells; assay: H1299-NQO1-YFP reporter cells transfected with mutant KEAP1; format: cell-based; conditions: 10 μM PYR, mutant KEAP1 overexpressed
Procedure: Data is of 3 independent experiments, error bars are SD.
H1299-NQO1-YFP cells were transfected with WT, R320Q, R470C, or V115F FLAG-KEAP1 constructs using Lipofectamine 2000. […] Calculations are detailed below. This was performed in biological triplicate and error bars are SD.

NRF2 protein [3] = assay: Western blot analysis of NRF2 protein abundance and downstream targets in cell lines; format: cell-based; conditions: for NRF2 protein abundance: 24-48 hours, PYR 10 μM, analogs 1 μM (104 in HEK293T 10 μM), MTX and PEM 0.1 μM, CG 10 μM
Procedure: (§2) Western Blots: KYSE70, HEK293T cells were plated and 24 hours later treated with compounds (see figure legends for details). Either at 24 or 48 hours later, cells were scrapped in RIPA buffer (0.2% deoxycholate, 0.1% SDS, 1% NP40, 150 mM NaCl, 50 mM Tris pH 7.4, 2 mM EDTA) supplemented with protease and phosphatase inhibitors, cleared at 14000×g for 15 minutes at 4° C., and supernatants were quantified by BCA assay (Pierce, 23225). Protein samples (20 μg) were prepared with 1×LDS buffer with 100 mM DTT, ran on NuPAGE 4-12% Bis-tris gels, and transferred onto a […] nitrocellulose membrane (Thermo, 88018). All blots were blocked in 5% milk in TBST for 30 minutes. After incubation of the primary antibody overnight at 4° C. and washed three times with 1×TBST, blots were incubated with LI-COR secondary antibodies for 1-2 hours, washed in 1×TBST thrice, and then imaged via a LI-COR Odyssey instrument (Li-COR, Lincoln, Nebr.).

[4] = tested on: NRF2 mRNA and NRF2 target gene mRNA; assay: RT-qPCR of NRF2 mRNA and NRF2 downstream targets in KYSE70 cells; format: cell-based; conditions: 24 or 48 hours, PYR 10 μM, analogs 1 μM, MTX and PEM 0.1 μM
Procedure: (§3) qRT-PCR: Total RNA was extracted using PureLink RNA kit following the manufacturers protocol. Primers for qPCR were designed using the National Center for Biotechnology Information's (NCBI) Primer-BLAST platform. For primer sequences, see Table 2. RNA was quantified using a Nanodrop One (Thermo, Waltham, Mass.), and the reverse transcription reaction was performed using 2 μg of RNA with the iSCRIPT Clear kit with DNAse (Biorad, 170-8891). For the qRT-PCR, PowerUP SYBR Green (Thermo, A25741) was used, and data were analyzed on an AB QuantStudio 6 Flex Real Time PCR machine (Applied Biosystems, Foster City, Calif.). ΔCT values were normalized to housekeeping gene RPL13a and then normalized to DMSO for final ΔΔCT value.

KYSE70 cells [5] = assay: Proliferation IC50 (percent confluence, IncuCyte) in KYSE70 cells; format: cell-based; conditions: Homo sapiens, read-out: proliferation IC50
Procedure: as §1, with “IncuCyte and IC50 calculations: […] […] Readings were taken every 2 hours for at least 24 hours. […] Readings were also taken every 2 hours for 96 hours in and IncuCyte S3. YFP total” for “YFP total”

H1299 cells = assay: Proliferation IC50 (percent confluence, IncuCyte) in H1299 cells; format: cell-based; conditions: Homo sapiens, read-out: proliferation IC50
Procedure: as §1, with “IncuCyte and IC50 calculations: […] […] Readings were taken every 2 hours for at least 24 hours. […] Readings were also taken every 2 hours for 96 hours in and IncuCyte S3. YFP total” for “YFP total”

DHFR protein = molecular target: T1, DHFR protein (Homo sapiens, UniProt P00374); assay: Western blot for DHFR protein stabilization; format: cell-based; conditions: western blot at the doses used
T1 construct: endogenous in cells; host or cells: KYSE70, HEK293T, H1299, A549, OE21, PC-9
T1 sequence (P00374 1-187): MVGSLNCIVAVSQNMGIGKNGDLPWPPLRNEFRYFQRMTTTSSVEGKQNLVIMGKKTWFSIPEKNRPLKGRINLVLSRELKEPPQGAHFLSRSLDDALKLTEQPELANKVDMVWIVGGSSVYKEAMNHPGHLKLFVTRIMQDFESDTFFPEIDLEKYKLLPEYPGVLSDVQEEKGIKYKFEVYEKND
Procedure: as §2

NRF2 protein [6] = assay: Western blot analysis of NRF2 protein abundance and downstream targets in cell lines; format: cell-based; conditions: H1299, 10 μM PYR or 1 μM 115 with 0.5 μM MLN, 24 hours
human DHFR (hDHFR) = molecular target: T2, human DHFR (hDHFR) (Homo sapiens, UniProt P00374); assay: Human DHFR enzymatic assay; format: biochemical; conditions: in vitro enzymatic assay, hDHFR 3E-3 Units; read-out: hDHFR3E-3 Units IC50 μM + SEM
T2 construct: purchased
T2 sequence (P00374 1-187): T1 sequence (P00374 1-187)

[7] = Mouse study on analog 115: pharmacokinetic profile and clinical observations; conditions: for concentration at 7 h: female, CD-1, mouse, plasma
Procedure: Two tests were conducted, on for a single oral dose of 10 mg/kg and for an intravenous 2 mg/kg dose in female CD-1 mice (n=3 for each group).
Mouse study with Analog 115: All mouse work was performed by Paraza Pharma, Inc. All pertinent information and methods are listed in FIG. 17.

KYSE70 cells [8] = assay: Metabolomics analysis of KYSE70 cells; format: cell-based; conditions: KYSE70, 48 hours; 10 μM PYR, 1 μM 115, 0.1 μM MTX
Procedure: After 48 hours, 1 ml of media was aliquoted into a clean Eppendorf and kept on ice, and the rest of the media was removed from these dishes. The cells were then washed in water twice and then scrapped in ice cold methanol.

AXIN2 and CK1γ1 mRNA = assay: qRT-PCR of AXIN2 and CK1γ1 mRNA (not NRF2 target genes) in KYSE70 cells; format: cell-based; conditions: KYSE70, 48 hours; 1 μM 115, 0.1 μM MTX, 0.1 μM PEM
Text: Single experiment shown. AXIN2 and CK1γ1 were done in same experiment, but separated for discussion. Error bars are SD and * represents p-value <0.05.
as §3

[9] = read-out: PRL295 5 μM IC50 AM ± SEM, Table 1, activator PRL295 5 μM, H1299-NQO1-YFP cells
[10] = Table 1 and text, average over activators CDDO, PRL295, SULF, H1299-NQO1-YFP cells, read-out: Avg IC50
[11] = Table 6 NRF2 inhibitors, read-out: Avg IC50

CCc1nc(N)nc(N)c1-c1ccc(Cl)cc1 [PYR, 5-(4-chlorophenyl)-6-ethylpyrimidine-2,4-diamine, reference compound]
IC50 ([1]; read-out: Avg IC50 μM, Table 1 and text, average over activators CDDO, PRL295, SULF, H1299-NQO1-YFP cells): 1.2 µM
IC50 ([1]; read-out: Avg IC50 μM, Table 3, average over activators, H1299-NQO1-YFP cells): 1.23 µM
IC50 ([1]; read-out: Avg IC50 μM, Table 6 NRF2 inhibitors): 1.23 µM
IC50 ([1]; read-out: CDDO 0.1 μM IC50 μM ± SEM, Table 1, activator CDDO 0.1 μM, H1299-NQO1-YFP cells): 1.25 ± 0.024 µM
IC50 ([1]; read-out: CDDO 100 nM IC50 μM ± SEM, Table 3, activator CDDO 100 nM, H1299-NQO1-YFP cells): 1.25 ± 0.024 µM
IC50 ([1]; read-out: PRL295 5 μM IC50 μM ± SEM, Table 3, activator PRL295 5 μM, H1299-NQO1-YFP cells): 0.873 ± 0.032 µM
IC50 [1, 9]: 0.873 ± 0.032 µM
IC50 ([1]; read-out: SULF 2 μM IC50 μM ± SEM, Table 1, activator SULF 2 μM, H1299-NQO1-YFP cells): 1.59 ± 0.0448 µM
IC50 ([1]; read-out: SULF 2 μM IC50 μM ± SEM, Table 3, activator SULF 2 μM, H1299-NQO1-YFP cells): 1.59 ± 0.0448 µM
mutant KEAP1 activation of the NRF2 pathway [2]: repressed mutant KEAP1 activation of the pathway
NRF2 protein on co-treatment with Bortezomib (NRF2 protein [3]; BORT 0.04 μM co-treatment, HEK293T, H1299): prevented PYR from decreasing NRF2
expression of downstream NRF2 target proteins (NRF2 protein [3]; western blot, PYR treatment): decreased expression of downstream NRF2 target proteins
NRF2 protein abundance (NRF2 protein [3]; western blot): decreases NRF2 protein abundance
NRF2 mRNA and NRF2 target gene mRNA [4]: abrogated NRF2 mRNA and NRF2 target gene mRNA decrease
IC50 (KYSE70 cells [5]; KYSE-70, 96 h): 1240 nM
IC50 (H1299 cells; NCI-H1299, 96 h): 3830 nM
DHFR protein stabilization (DHFR protein): DHFR protein was stabilized
NRF2 protein levels with MLN induced stabilization (NRF2 protein [6]): Neither PYR nor 115 can decrease NRF2 protein levels

CCc1nc(N)ncc1-c1ccc(Cl)cc1 [WCDD101, 5-(4-chlorophenyl)-4-ethylpyrimidin-2-amine]
suppression of NRF2 activity (in words) ([1]; IC50 experiments at the doses tested): did not have any effect on NRF2 activity
IC50 [1, 10]: > 20 µM
IC50 [1, 11]: > 20 µM
DHFR protein stabilization (DHFR protein): DHFR was not stabilized

CCc1nc(N)nc(N)c1-c1cccc(C(F)(F)F)c1 [WCDD115, 6-ethyl-5-(3-(trifluoromethyl)phenyl)pyrimidine-2,4-diamine]
IC50 ([1]; Table 1, activator CDDO 0.1 μM, H1299-NQO1-YFP cells, read-out: CDDO 0.1 μM IC50 μM ± SEM): 0.052 ± 0.0001 µM
IC50 ([1]; Table 1, activator SULF 2 μM, H1299-NQO1-YFP cells, read-out: SULF 2 μM IC50 μM ± SEM): 0.057 ± 0.003 µM
IC50 [1, 10]: 0.05 µM
IC50 [1, 11]: 0.057 µM
IC50 [1, 9]: 0.06 ± 0.001 µM
potency in NRF2 suppression compared to PYR ([1]; relative to PYR): 10 fold
IC50 ([1]; unit inferred, read-out: IC50): 0.05 µM
NRF2 protein abundance (NRF2 protein [3]; western blot): decrease NRF2 protein abundance
IC50 (KYSE70 cells [5]; KYSE-70, KYSE70, 96-hour time point, one or two experiments): 31.9 nM
IC50 (H1299 cells; NCI-H1299, H1299, 96-hour time point, initial experiment): 145 nM
IC50 (human DHFR (hDHFR)): 0.144 ± 0.0224 µM
concentration at 7 h ([7]; iv, 2 mg/kg): 76.4 ng/mL
concentration at 7 h ([7]; po, 10 mg/kg): ~450 ng/mL
plasma level at 24 hours post dosing ([7]; oral 10 mg/kg or IV 2 mg/kg, 24 hours post dosing): unquantifiable
reduction potential in the form of glutathione ratios (KYSE70 cells [8]): decreased
AXIN2 and CK1γ1 mRNA (AXIN2 and CK1γ1 mRNA): some minimal effect on AXIN2
NRF2 protein levels with MLN induced stabilization (NRF2 protein [6]): Neither PYR nor 115 can decrease NRF2 protein levels
